Assay results from US10093670B2, “Azabenzimidazole derivative having AMPK-activating activity” (Shionogi & Co., Ltd., priority 2011, dated 2018).

Experiments:
Human AMPK α2β2γ1 = molecular target: T1, Human AMPK α2β2γ1 (Homo sapiens, UniProt O43741+P54646); assay: Evaluation of AMPK activator, Test Example 2 (CaMKK2-phosphorylated enzyme, mobility-shift kinase assay); format: biochemical; settings: for EC150 (compound concentration showing 150% relative to the control (100%)): human AMPK α2β2γ1 phosphorylated by CaMKK2, 25° C., 2 hours; for Emax: human AMPK α2β2γ1 phosphorylated by CaMKK2, relative to control (100%), read-out: Emax (maximum rate of increase in activity within the measurement range)
T1 construct: The full length cDNAs of human AMPK β2 (NM_005399.3) and human AMPK α2 (NM_006252.3) were inserted; the full length cDNA of human AMPK γ1 (NM_002733.3) had been inserted into pET28b(+); 6xHis (N); made in house; host or cells: Escherichia coli BL21 CodonPlus (DE3)-RIL (AMPK); BL21 Star (DE3) (CaMKKβ)
Protocol: The full length cDNAs of human AMPK β2 (NM_005399.3) and human AMPK α2 (NM_006252.3) were inserted into the MCS1 and MCS2 of the pETDuet-1 vector to prepare a human AMPK β2 and human AMPK α2 (6× His tag at the 5′ terminus) expressing plasmid. The plasmid was contransfected with an expression plasmid, in which the full length cDNA of human AMPK γ1 (NM_002733.3) had been inserted into pET28b(+), into BL21 CodonPlus (DE3)-RIL to obtain an expression strain. The expression strain was cultured in TB medium, followed by induction with 0.5 mM IPTG, and cultured at 25° C. for 3 hours and then harvested. After ultrasonication, supernatant was collected and applied to Histrap FF column (GE) and RESOUECE Q column (GE) to prepare 12.5 mg of purified sample containing three types of subunit from 1.8 L of broth.
An expression vector, in which the full length cDNA of human CAMKK β (NM_172226.1) had been inserted into pGEX-6P-3, was transfected into BL21 Star (DE3). The expression strain was cultured in TB medium, followed by induction with 0.5 mM IPTG, and cultured at 25° C. for 3 hours and then harvested. After ultrasonication, supernatant was collected and applied to GSTrap FF column (GE) to prepare 14 mg of GST-fused CAMKK β from 720 ml of broth.
Evaluation Method of an Activator for AMP-activated Protein Kinase (AMPK) (Test Example 2)
Thus, phosphorylation treatment was carried out as pretreatment.
Human AMPK α2β2γ1 in an amount to give a conversion rate of approximately 10% by reaction for 2 hours, and CaMKK2 in an amount capable of sufficiently imparting activity to AMPK for one hour were mixed in a buffer solution consisting of a 50 mM HEPES-NaOH buffer solution (pH 7.0), 100 mM NaCl, 5 mM magnesium chloride, 0.1% bovine serum albumin, 0.2 mM sodium orthovanadate(V), 1 mM ethylene glycol-bis(2-aminoethyl ether)-N,N,N′,N′-tetraacetic acid (EGTA), 5 mM disodium β-glycerophosphate, 1 mM dithiothreitol and 0.2 mM ATP, and the obtained liquid was left to stand at 25° C. for 1 to 1.5 hours to sufficiently phosphorylate AMPK.
After that, to the enzyme liquid, which had been subjected to phosphorylation treatment, a compound dissolved in DMSO was added so as to have a 1% DMSO concentration. The obtained liquid was left to stand for 10 minutes.
To the liquid, a substrate solution consisting of a 50 mM HEPES-NaOH buffer solution (pH 7.0), 100 mM NaCl, 10 mM magnesium chloride, 0.1% bovine serum albumin, 0.2 mM sodium orthovanadate(V), 1 mM ethylene glycol-bis(2-aminoethyl ether)-N,N,N′,N′-tetraacetic acid (EGTA), 5 mM disodium β-glycerophosphate, 2 mM dithiothreitol, 0.4 mM ATP and 3 μM FL-Peptide 7 (manufactured by Caliper Life Sciences, Inc.) was added in equal amount (10 μl in total). The obtained liquid was allowed to react at 25° C. for 2 hours, and 10 μl of 20 mM EDTA was then added thereto to stop the reaction.
(§1) To detect phosphorylated fluorescent substrates, the reaction liquid was applied to a measuring device, LabChip EZ Reader II manufactured by Caliper Life Science, Inc., for detecting fluorescence by using differences in mobility due to differences in charge. The setting conditions for the device were pressure, −1.5 PSI; upstream voltage, −2250 V; downstream voltage, −400 V; post sample buffer sip time, 40 seconds; final delay, 120 seconds; and peak order, Product First.
(§2) A conversion rate was calculated from the peak heights of the resulting substrate and product. The conversion rate when not containing a compound was used as a control, and a concentration dependent curve was made by plotting the rate of increase in activity to the control at each concentration of a compound.

human AMPK α1β1γ1 enzyme = molecular target: T2, human AMPK α1β1γ1 enzyme (Homo sapiens, UniProt Q13131+Q9Y478); assay: Evaluation of AMPK activator, Test Example 1 (mobility-shift kinase assay, FL-Peptide 7); format: biochemical; settings: for EC150 (compound concentration showing 150% relative to the control (100%)): human AMPK α1β1γ1, 25° C., 2 hours, 0.2 mM ATP final; for Emax / Emax (maximum rate of increase in activity within the measurement range): human AMPK α1β1γ1, relative to control (100%); for Emax: read-out: Emax (maximum rate of increase in activity within the measurement range)
T2 construct: purchased Carna Biosciences, Inc
Protocol: The obtained liquid was left to stand for 10 minutes.
The obtained liquid was allowed to react at 25° C. for 2 hours, and 10 μl of 20 mM EDTA was then added thereto to stop the reaction.
as §1, §2

T2 sequence (Q13131 10-559 limits assumed): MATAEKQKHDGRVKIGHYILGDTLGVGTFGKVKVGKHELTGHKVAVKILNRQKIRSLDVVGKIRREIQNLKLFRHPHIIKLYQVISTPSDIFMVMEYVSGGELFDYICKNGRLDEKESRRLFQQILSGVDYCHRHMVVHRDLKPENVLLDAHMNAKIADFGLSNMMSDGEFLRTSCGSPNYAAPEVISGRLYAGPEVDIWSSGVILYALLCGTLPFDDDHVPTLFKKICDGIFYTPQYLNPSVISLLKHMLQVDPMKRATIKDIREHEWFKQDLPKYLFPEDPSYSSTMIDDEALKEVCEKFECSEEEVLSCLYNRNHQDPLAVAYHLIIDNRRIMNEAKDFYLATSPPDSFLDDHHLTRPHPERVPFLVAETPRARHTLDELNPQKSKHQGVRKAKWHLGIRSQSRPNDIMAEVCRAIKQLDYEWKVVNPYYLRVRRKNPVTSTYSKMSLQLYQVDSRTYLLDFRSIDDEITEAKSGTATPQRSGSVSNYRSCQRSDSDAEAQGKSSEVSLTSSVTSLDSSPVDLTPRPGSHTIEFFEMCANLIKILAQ
T2 sequence (Q9Y478 whole entry): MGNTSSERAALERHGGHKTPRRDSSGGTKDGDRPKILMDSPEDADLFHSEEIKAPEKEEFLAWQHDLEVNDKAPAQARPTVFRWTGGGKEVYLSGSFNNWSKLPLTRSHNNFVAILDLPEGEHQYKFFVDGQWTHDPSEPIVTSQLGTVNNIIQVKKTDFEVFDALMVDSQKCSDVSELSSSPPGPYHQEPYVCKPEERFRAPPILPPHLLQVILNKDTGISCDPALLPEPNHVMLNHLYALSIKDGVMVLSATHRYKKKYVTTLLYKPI
T2 sequence (P54619 whole entry partner): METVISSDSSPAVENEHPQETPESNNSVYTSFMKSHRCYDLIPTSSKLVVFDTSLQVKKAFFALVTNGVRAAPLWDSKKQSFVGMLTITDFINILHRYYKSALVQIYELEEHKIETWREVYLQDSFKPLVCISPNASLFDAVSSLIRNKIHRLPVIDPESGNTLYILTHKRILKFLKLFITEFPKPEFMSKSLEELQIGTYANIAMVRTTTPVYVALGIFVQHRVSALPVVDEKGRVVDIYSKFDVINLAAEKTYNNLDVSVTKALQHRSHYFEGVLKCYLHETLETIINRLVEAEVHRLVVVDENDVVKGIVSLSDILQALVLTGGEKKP
T1 sequence (P54646 whole entry): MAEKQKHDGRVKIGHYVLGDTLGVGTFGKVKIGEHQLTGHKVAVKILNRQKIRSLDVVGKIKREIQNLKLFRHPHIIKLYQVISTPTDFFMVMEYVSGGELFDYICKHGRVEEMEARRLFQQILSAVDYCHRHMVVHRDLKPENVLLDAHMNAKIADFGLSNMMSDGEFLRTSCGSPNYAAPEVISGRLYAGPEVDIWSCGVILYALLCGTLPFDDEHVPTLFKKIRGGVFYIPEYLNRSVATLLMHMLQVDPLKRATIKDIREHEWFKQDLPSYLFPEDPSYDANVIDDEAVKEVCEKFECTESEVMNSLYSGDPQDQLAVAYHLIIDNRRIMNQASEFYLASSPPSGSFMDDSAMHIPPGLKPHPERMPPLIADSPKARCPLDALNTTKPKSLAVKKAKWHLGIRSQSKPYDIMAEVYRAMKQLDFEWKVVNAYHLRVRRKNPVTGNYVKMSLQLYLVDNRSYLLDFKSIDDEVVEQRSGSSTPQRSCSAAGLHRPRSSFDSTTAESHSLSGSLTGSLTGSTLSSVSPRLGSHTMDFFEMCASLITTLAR
T1 sequence (O43741 whole entry): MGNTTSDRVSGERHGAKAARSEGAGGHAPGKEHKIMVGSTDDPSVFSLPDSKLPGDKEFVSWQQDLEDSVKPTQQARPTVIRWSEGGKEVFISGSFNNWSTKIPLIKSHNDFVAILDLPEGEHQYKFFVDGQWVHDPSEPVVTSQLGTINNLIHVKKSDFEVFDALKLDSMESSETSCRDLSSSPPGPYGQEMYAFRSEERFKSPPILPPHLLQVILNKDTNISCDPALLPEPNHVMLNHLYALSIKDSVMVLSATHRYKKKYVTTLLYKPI
T1 sequence (P54619 whole entry partner): as the sequence (P54619 whole entry partner) above

Structure (SMILES) | EC150 (compound concentration showing 150% relative to the control (100%)) (Human AMPK α2β2γ1) | Emax (Human AMPK α2β2γ1) | EC150 (compound concentration showing 150% relative to the control (100%)) (human AMPK α1β1γ1 enzyme) | Emax (human AMPK α1β1γ1 enzyme) | Emax (maximum rate of increase in activity within the measurement range) (human AMPK α1β1γ1 enzyme)
CC(=O)NC1CC=C(c2ccc(-c3nc4nc(O[C@H]5CC[C@H](CC(=O)O)CC5)[nH]c4cc3Cl)cc2)CC1 (stereo partly shown) [Compound I-2-76] | 85 nM | 175% | 14 nM | 232% | –
CC(Oc1nc2nc(-c3ccc(N4CCCC4)cc3)c(Cl)cc2[nH]1)c1cc(O)no1 (stereo not shown) [Compound I-2-112] | 74 nM | 269% | 25 nM | 246% | –
CN(C)C(=O)[C@H]1C[C@@H](Oc2nc3nc(-c4ccc(C5=CCC(C(=O)O)CC5)cc4)c(Cl)cc3[nH]2)C1 (stereo partly shown) [Compound I-2-129] | – | 339% | – | 276% | –
CC(C)(C(=O)O)[C@]1(O)CC[C@@H](Oc2nc3nc(-c4ccc(N5CCOCC5)cc4)c(Cl)cc3[nH]2)CC1 [Compound I-3-24] | 11 nM | 271% | 0.79 nM | – | 318%
CC(C)(C(=O)O)[C@]1(O)CC[C@@H](Oc2nc3nc(-c4ccc(N5CCCCC5)cc4)c(Cl)cc3[nH]2)CC1 [Compound I-3-51] | – | – | 4.5 nM | 338% | –
CN1CCc2cc(-c3nc4nc(O[C@H]5CC[C@](O)(C(C)(C)C(=O)O)CC5)[nH]c4cc3Cl)ccc21 [Compound I-3-52] | – | – | 2.3 nM | 400% | –
O=C(O)C1CCC(Oc2nc3nc(-c4ccc(N5CCOCC5)cc4)c(Cl)cc3[nH]2)C1 (stereo not shown) [Compound I-3-53] | – | – | 51 nM | 261% | –
CC(C)(C(=O)O)[C@]1(O)CC[C@@H](Oc2nc3nc(-c4c(F)cc(N5CCOCC5)cc4F)ccc3[nH]2)CC1 [Compound I-3-62] | – | – | 22 nM | 333% | –
CC(=O)NC1CCN(c2ccc(-c3nc4nc(OC5CCC(C(C)(C)C(=O)O)CC5)[nH]c4cc3Cl)cc2)CC1 (stereo not shown) [Compound I-3-65] | – | – | 24 nM | 233% | –
CC(C)(C(=O)O)[C@]1(O)CC[C@@H](Oc2nc3nc(-c4ccc(-c5ccccc5)cc4)c(Cl)cc3[nH]2)CC1 [Compound I-3-66] | – | – | 3.4 nM | 389% | –
CCC(Oc1nc2nc(-c3ccc(N4CCCC4)cc3)c(Cl)cc2[nH]1)c1cc(O)no1 (stereo not shown) [Compound I-3-69] | – | – | 60 nM | 259% | –
O=C(O)[C@]1(O)CC[C@@H](Oc2nc3nc(-c4ccc(N5CCOCC5)cc4)c(Cl)cc3[nH]2)CC1 [Compound I-3-75] | – | – | 47 nM | 236% | –
CC(C)(C(=O)O)[C@]1(O)CC[C@@H](Oc2nc3nc(-c4ccc(N5CCOCC5)cc4)c(Cl)cc3[nH]2)CC1 [Compound I-3-83] | – | – | 24 nM | – | 278%
CN(C)C(=O)N1CC=C(c2ccc(-c3nc4nc(O[C@H]5CC[C@H](C(C)(C)C(=O)O)CC5)[nH]c4cc3Cl)cc2)CC1 [Compound I-3-85] | – | – | 4.9 nM | 276% | –
CC(C)(CO)C1CCC(Oc2nc3nc(-c4ccc(N5CCOCC5)cc4)c(Cl)cc3[nH]2)CC1 (stereo not shown) [Compound I-3-89] | – | – | – | 236% | –
CN(C)C(=O)[C@H]1C[C@@H](Oc2nc3nc(-c4ccc(-c5ccc(C(=O)O)cc5)cc4)c(Cl)cc3[nH]2)C1 [Compound I-3-91] | – | – | 21 nM | 287% | –
CC(=O)N1CC=C(c2ccc(-c3nc4nc(OC5CCC(C(C)(C)CO)CC5)[nH]c4cc3Cl)cc2)CC1 (stereo not shown) [Compound I-3-92] | – | – | 23 nM | 303% | –
CC(C)(C(=O)O)C1CCC(Oc2nc3nc(-c4ccc(C5=CCOCC5)cc4)c(Cl)cc3[nH]2)CC1 (stereo not shown) [Compound I-3-93] | – | – | 9.6 nM | 301% | –
CC(C)(C(=O)O)[C@H]1CC[C@H](Oc2nc3nc(-c4ccc(-c5ccccc5O)cc4)c(Cl)cc3[nH]2)CC1 [Compound I-3-97] | – | – | 0.68 nM | 343% | –
O=C(c1ccc(-c2ccc(-c3nc4nc(O[C@H]5CC[C@H](C(=O)O)CC5)[nH]c4cc3Cl)cc2)cc1)N1CCC(O)CC1 [Compound I-3-104] | – | – | 21 nM | 203% | –
CC(C)(C(=O)O)[C@H]1CC[C@H](Oc2nc3nc(-c4ccc(-c5ccc(C(=O)N6CCC(O)CC6)cc5)cc4)c(Cl)cc3[nH]2)CC1 [Compound I-3-106] | – | – | 9.1 nM | 311% | –
CC(C)(C(=O)O)[C@H]1CC[C@H](Oc2nc3nc(-c4ccc(-c5ccc(C(=O)N6CCOCC6)cc5)cc4)c(Cl)cc3[nH]2)CC1 [Compound I-3-108] | – | – | 8.2 nM | 291% | –
O=C(O)c1ccc(-c2ccc(-c3nc4nc(O[C@H]5C[C@@H](C(=O)N6CC(O)C6)C5)[nH]c4cc3Cl)cc2)cc1 [Compound I-3-115] | – | – | 23 nM | 260% | –
CC(C)(C(=O)O)[C@H]1CC[C@H](Oc2nc3nc(-c4ccc(-c5ccc(C(N)=O)cc5)cc4)c(Cl)cc3[nH]2)CC1 [Compound I-3-119] | – | – | 1.6 nM | 300% | –
O=C(O)C1([C@]2(O)CC[C@@H](Oc3nc4nc(-c5ccc(N6CCOCC6)cc5)c(Cl)cc4[nH]3)CC2)CCC1 [Compound I-3-123] | – | – | 18 nM | 243% | –
